From patent publication US20120082631A1, “COMPOSITIONS” (priority 2009, published 2012)

Test: Sensory panel astringency ranking after brushing with toothpaste samples
Assay type: in vivo
Details: for astringency ratings compared to those of the standard toothpaste base and the current market product: flavour material at 1000 ppm in toothpaste base with 0.75% zinc citrate, statement in words; for Astringency Rating (0-10): mean rating by a panel of three trained experts, 0 = no astringency, 10 = strong astringency, ingredients at 1000 ppm (0.1% w/w) in Standard Toothpaste Base with 0.75% Zinc Citrate, 30 seconds brushing, spit out, one water rinse
Experimental: Differing flavour ingredients were added, at a concentration of 1000 ppm, to a non-flavoured toothpaste base containing 0.75% zinc citrate (ZCT).
Measured samples, of equal weight, of the non-flavoured toothpaste base containing 0.75% ZCT and the same toothpaste base modified with flavour ingredients were then placed on toothbrushes. The samples were tested by a panel of three independent trained experts. The panelists were instructed to brush their teeth for 30 seconds, spit out and rinse once with water. The subjects were then asked to rank the astringency on a scale of 0 to 10 for each sample, 0 representing no astringency and 10 representing strong astringency. A current market product was also tested in the same way.
Table 1 lists the flavour ingredients added to the non-flavoured toothpaste base containing 0.75% zinc citrate, along with the mean astringency rating of each sample. Also included in table 1 is the mean astringency rating of the non-flavoured toothpaste base containing 0.75% ZCT and the current market product.

SMILES	astringency ratings compared to those of the standard toothpaste base and the current market product	Astringency Rating (0-10)
CC1=C(O)C(=O)CC1 [Cyclotene, 2-hydroxy-3-methyl-2-cyclopenten-1-one]	significantly lower astringency ratings	4.5
CCc1occc(=O)c1O [Ethyl Maltol, 2-ethyl-3-hydroxy-4H-pyran-4-one]	significantly lower astringency ratings	3.5
Cc1occc(=O)c1O [Maltol, 3-hydroxy-2-methyl-4H-pyran-4-one]	significantly lower astringency ratings	3.8
COc1cc(C=O)ccc1O [Vanillin, reference compound]	–	6.5
